Data published in publication PMC8750417, “Intracellular Amplifiers of Reactive Oxygen Species Affecting Mitochondria as Radiosensitizers” (Cancers, 2021).

Legend:
[1] = system: mononuclear cells (MNCs) from healthy donors; experiment: Viability of primary mononuclear cells (CellTiter Glo); format: cell-based, human; details: primary MNC from six healthy donors, 48 h
Experimental: Afterwards, the cells were washed with DPBS and a fresh portion of RPMI 1640 medium containing 5% FBS, 1% L-glutamine and 1% penicillin/streptomycin (1 mL) was added.
The fluorescence images were taken with a Zeiss Axio Vert.A1 fluorescence microscope […]
For SBLF9 the same procedure was applied except that Ham's F-12K (Kaighn's)-Medium supplemented with 15 % FBS, 2 % non-essential amino acid mix, and 1 % penicillin/streptomycin was used for cell seeding and incubation with the prodrug or the carrier. A cell density of 40 cells/µL was used.
Determination of viability of primary cancer (CLL) and normal (MNC) cells in the […]
Clinical samples from chronic lymphocytic leukemia (CLL) patients (N=6, CLL cells) and healthy donors (N=6; peripheral blood mononuclear cells, MNCs) were collected at the University Hospital Heidelberg, Germany. Informed consent was obtained in accordance with the Declaration of Helsinki. Sample collection and analysis was approved by the ethics committee of the University of Heidelberg (S-254/2016). Blood was separated by a Ficoll gradient (GE Healthcarey), and cells were cryopreserved. […]
4x10^4 cells per well. […] Cell viability was assessed by quantification of ATP (CellTiter Glo®, Promega) 48 hours after drug application.
Luminescence was measured on a Tecan Infinite F200 Microplate Reader. Viability was calculated as % of solvent (DMSO) treated control. […]

A2780 cells [2] = experiment: Total intracellular ROS (CM-DCFH-DA), A2780; format: cell-based, human; details: 2 h
Experimental: Monitoring total intracellular ROS (tROS)
A2780 cells were seeded in RPMI 1640 medium containing 5% FBS, 1% L-glutamine and 1% penicillin/streptomycin in a 24-well microtiter plate (total volume 0.5 mL) at a density of 200 cells/µL one day before the experiment. On the day of the experiment, the cells were washed twice with DPBS buffer and the medium was replaced with HBSS (Hanks' Balanced Salt solution, 500 μL). CM-DCFH-DA (5-(6-)chloromethyl-2',7'- dichlorodihydrofluorescein diacetate, Thermo- Fisher) solution (0.1 mM in DMSO, 5 μL) was added (final concentration 1 µM) and the cells were incubated in the dark chamber filled with CO2 (5%) at 37 °C for 15 min. […] Finally, the fluorescence of live cells (λex = 488 nm, λem = 525 nm) in the suspensions was determined by using flow cytometry (Figure 4A, 5C).
Intracellular ROS release in Jurkat cells was monitored analogously (Figure S58).
Figure S58. […] OY-axis “Fluorescence”: the increase of the mean fluorescence (λex = 488 […]

[3] = Hydrolysis of prodrugs in aqueous neutral solution (HPLC-UV-MS); format: physicochemical; details: 1 to 1_BA
Experimental: To identify the active form of prodrugs 2a–2d in aqueous neutral buffers, we investigated their stability in the water rich solvent mixture containing triethylammonium acetate buffer (pH 7.0, 1.5 mM) and CH3CN (7/3, v/v). We observed that even freshly prepared solutions of analytically pure samples of 2a–2d (peaks eluted at 10.2–10.7 min) contain hydrolyzed species corresponding to boronic acid derivatives 2a_BA–2d_BA (peaks eluted at 7.1–7.5 min, 7–14% of the area of all peaks) (Figure S43, SI). After 2 h incubation of these samples, the peaks of 2a_BA–2d_BA become major ones (79–87% of the area of all peaks, Figure S43, SI).
Figure S42. High resolution ESI-TOF mass spectrum of HCl salt of drug 4 (4*HCl): upper plot – experimental spectrum; bottom plot – theoretical spectrum.
Determination of crystal structure of prodrug 2a […]
Stock solutions of prodrugs (2a-2d, 3 mM) in DMSO were first prepared. […] After the probes (20 µL) of these solutions were incubated for 0 or 2 h at 37 °C, they were injected to HPLC coupled to UV-visible detector (detection of absorbance at 254 nm) and electrospray mass spectrometric detector (detection of positively charged ions in the m/z range of 300 - 1200) and the analytes were separate d by using gradients of CH3CN (containing formic acid, 0.1 %, v/v) in water (containing ammonium formate, 10 mM and formic acid, 0.1 %, v/v) from 15% to 95%. […]

A2780 cells [4] = system: A2780 cells; design: method as in PMID 30035345; details: relative to 4-(N-ferrocenyl-N-benzylaminocarbonyloxymethyl)-phenylboronic acid pinacol ester; cited from earlier work

CC1(C)OB(c2ccc(COC(=O)N(Cc3cn(Cc4ccc(Cn5cc(Cc6ccccc6)nn5)cc4)nn3)[c-]3cccc3)cc2)OC1(C)C.[Fe+2].c1cc[cH-]c1 [2c]
IC50 [1]: 12 ± 3 µM | total ROS (tROS) vs background (A2780 cells [2]): significantly higher than its background levels

CCOC(=O)CCCCCn1cc(CN(C(=O)OCc2ccc(B3OC(C)(C)C(C)(C)O3)cc2)[c-]2cccc2)nn1.[Fe+2].c1cc[cH-]c1 [compound 1]
time of formation of the hydrolyzed form in aqueous neutral solution [3]: < 2 h | efficacy of cellular uptake relative to reference NAAF prodrug (A2780 cells [4]): ca. 50%
